Measured values published in ChEMBL document CHEMBL4138216, “Design, synthesis and structure-activity relationship of a focused library of β-phenylalanine derivatives as novel eEF2K inhibitors with apoptosis-inducing mechanisms in breast cancer” (Eur J Med Chem, 2018).
Calls of active or inactive are those of the source. The calls are words filed in the database; no cut-off is given here.

Experiments:
[1] = molecular target: T1, Eukaryotic elongation factor 2 kinase (Homo sapiens, UniProt O00418); experiment: Inhibition of eEF2K (unknown origin) using peptide MH-1 as substrate after 2 hrs by ADP-Glo luminescent assay
T1 sequence (O00418 whole entry): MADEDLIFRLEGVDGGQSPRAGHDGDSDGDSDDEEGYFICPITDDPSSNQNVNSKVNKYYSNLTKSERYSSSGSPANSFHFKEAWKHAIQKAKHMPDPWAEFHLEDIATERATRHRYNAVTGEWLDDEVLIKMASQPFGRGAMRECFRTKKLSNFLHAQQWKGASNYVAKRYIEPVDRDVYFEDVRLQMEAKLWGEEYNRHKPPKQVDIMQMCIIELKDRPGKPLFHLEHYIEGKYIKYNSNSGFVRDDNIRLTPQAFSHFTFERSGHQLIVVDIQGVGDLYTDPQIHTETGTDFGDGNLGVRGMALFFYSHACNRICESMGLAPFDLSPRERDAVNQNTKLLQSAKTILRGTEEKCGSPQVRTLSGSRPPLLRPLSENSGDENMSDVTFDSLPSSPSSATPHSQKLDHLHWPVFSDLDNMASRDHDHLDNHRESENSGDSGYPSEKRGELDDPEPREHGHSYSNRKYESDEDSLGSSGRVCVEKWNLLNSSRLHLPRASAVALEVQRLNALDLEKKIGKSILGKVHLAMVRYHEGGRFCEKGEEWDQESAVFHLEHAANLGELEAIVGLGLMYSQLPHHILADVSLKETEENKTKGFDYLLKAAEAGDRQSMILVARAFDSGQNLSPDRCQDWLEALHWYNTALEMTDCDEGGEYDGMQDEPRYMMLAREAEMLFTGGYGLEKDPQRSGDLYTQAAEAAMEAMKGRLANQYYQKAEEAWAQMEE

MDA-MB-436 = experiment: Induction of apoptosis in human MDA-MB-436 cells assessed as loss of mitochondrial membrane potential after 12 to 36 hrs by rhodamine123 staining-based flow cytometric method; type: functional, cell-based
MDA-MB-231 = experiment: Induction of apoptosis in human MDA-MB-231 cells assessed as upregulation of Bax expression after 12 to 36 hrs by Western blot method; type: functional, cell-based
Mus musculus [2] = experiment: Toxicity in BALB/c nude mouse xenografted with human MDA-MB-436 cells assessed as body weight loss at 25 mg/kg, ig qd measured every 3 days for 24 days during compound dosing; type: organism-based; settings: in vivo, po, 576 h
Mus musculus [3] = experiment: Toxicity in BALB/c nude mouse xenografted with human MDA-MB-436 cells assessed as decrease in spleen weight at 100 mg/kg, ig qd measured after 24 days; type: organism-based; settings: in vivo, po, 576 h

## N#Cc1ccc(S(=O)(=O)NC(CC(=O)O)c2ccc(Cl)cc2Cl)cc1 (stereo not given)
[1]
  IC50: 5.5 µM
MDA-MB-436
  Activity: Active
MDA-MB-231
  Activity: Active
Mus musculus [2]
  Activity: Toxic
Mus musculus [3]
  Activity: Toxic
